# T1: P. denitrificans NN:DMBI PRT (Sinorhizobium sp, UniProt P29935)
# T1 construct: the amino-terminal methionine is definitely excised in vivo by methionine aminopeptidase; made in house; host or cells: Pseudomonas denitrificans SC510 Rif^r carrying plasmid pXL1490B (cobU and cobV amplified)
# T1 sequence (P29935 2-338 limits assumed): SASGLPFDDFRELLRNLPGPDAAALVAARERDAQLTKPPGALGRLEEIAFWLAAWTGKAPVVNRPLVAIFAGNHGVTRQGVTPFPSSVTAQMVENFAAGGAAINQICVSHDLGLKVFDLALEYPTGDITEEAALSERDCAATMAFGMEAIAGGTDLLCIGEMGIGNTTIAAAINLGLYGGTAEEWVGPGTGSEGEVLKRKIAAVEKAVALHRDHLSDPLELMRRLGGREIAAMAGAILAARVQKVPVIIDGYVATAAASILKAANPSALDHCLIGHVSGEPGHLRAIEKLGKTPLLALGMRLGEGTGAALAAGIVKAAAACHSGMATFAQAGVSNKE
# T2: Methanobacterium ivanovii SUMT (Methanobacterium ivanovii, UniProt P29564)
# T2 construct: endogenous in cells; host or cells: Methanobacterium ivanovii DSM2611 (enzyme purified to homogeneity from the natural organism)
# T2 sequence (P29564 2-231 limits assumed): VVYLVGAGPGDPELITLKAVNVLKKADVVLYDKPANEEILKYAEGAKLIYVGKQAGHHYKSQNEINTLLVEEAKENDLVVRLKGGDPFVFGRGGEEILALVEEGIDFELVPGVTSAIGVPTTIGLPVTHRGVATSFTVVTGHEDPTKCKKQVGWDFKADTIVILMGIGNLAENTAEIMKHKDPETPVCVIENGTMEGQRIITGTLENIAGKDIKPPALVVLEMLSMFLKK
# B1: M. ivanovii SUMT: SAM:uro'gen III methyltransferase purified from Methanobacterium ivanovii, encoded by corA (protein)
# chain: MVVYLVGAGPGDPELITLKAVNVLKKADVVLYDKPANEEILKYAEGAKLIYVGKQAGHHYKSQNEINTLLVEEAKENDLVVRLKGGDPFVFGRGGEEILALVEEGIDFELVPGVTSAIGVPTTIGLPVTHRGVATSFTVVTGHEDPTKCKKQVGWDFKADTIVILMGIGNLAENTAEIMKHKDPETPVCVIENGTMEGQRIITGTLENIAGKDIKPPALVVLEMLSMFLKK
# Experiments:
# [1] = biological target: T1, P. denitrificans NN:DMBI PRT; assay: Specificity of NN:DMBI PRT for benzimidazole substrates; type: biochemical, Pseudomonas denitrificans; conditions: NaMN concentration fixed at 2 mM
# Protocol: a) Assay of Nicotinate-nucleotide:dimethylbenzimidazole phosphoribosyltransferase activity (FIG. 5, reaction 5). This example illustrates the assay of an enzymatic activity directly linked to the pathway of biosynthesis of cobalamins. The enzyme in question is nicotinate-nucleotide:dimethylbenzimidazole phosphoribosyl-transferase (NN:DMBI PRT) (EC 2.4.2.21). The fractions containing NN:DMBI PRT activity (approximately 5 units) are incubated at 30° C. for 8 min in 0.1 M glycine-NaOH buffer pH 9.7 (500 μl) in the presence of 1 mM NaMN (nicotinic acid mononucleotide) and 10 μM DMBI. The reaction is then stopped by heating to 80° C. for 10 min, the reaction mixture is diluted with water (4 volumes) and this solution (100 μl) is injected onto a 15-cm Nucleosil 5-C8 HPLC column eluted with a 0.1 M potassium phosphate pH 2.9/acetonitrile (93:7) mixture at a flow rate of 1 ml/min. The α-ribazole 5′-phosphate is detected and quantified by fluorimetry (excitation: 260 nm; emission >370 nm). The unit of enzymatic activity is defined as the quantity of enzyme necessary for generating 1 nmol of α-ribazole 5′-phosphate per hour under these conditions.
# d) Specificity of NN:DBI PRT for DBI. […]
# precorrin-6x reductase = biological target: T3, precorrin-6x reductase (Sinorhizobium sp, UniProt P21920); assay: Reaction catalysed by precorrin-6x reductase, cofactor dependence; type: biochemical, Pseudomonas denitrificans
# T3 construct: the amino-terminal methionine is definitely excised in vivo by methionine aminopeptidase; made in house; host or cells: Pseudomonas denitrificans SC510 Rif^r carrying plasmid pXL253 (8.7-kb EcoRI fragment, cobF to cobM, in pKT230)
# T3 sequence (P21920 2-261): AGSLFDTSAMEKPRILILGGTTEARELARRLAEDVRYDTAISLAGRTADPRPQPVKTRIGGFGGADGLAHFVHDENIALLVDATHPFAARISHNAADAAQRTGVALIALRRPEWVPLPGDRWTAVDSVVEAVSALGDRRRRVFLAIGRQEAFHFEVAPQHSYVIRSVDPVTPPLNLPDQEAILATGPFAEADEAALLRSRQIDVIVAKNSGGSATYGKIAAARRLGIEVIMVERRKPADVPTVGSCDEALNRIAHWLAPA
# Protocol: The fractions containing precorrin-6x reductase activity (approximately 0.05 unit, U) are incubated at 30° C. for 60 min in 0.1 M Tris-HCl buffer pH 7.7 (250 μl) in the presence of 1 mM EDTA, 500 μM NADPH, 25 μM [methyl-^3H]SAM (80 μCi/μmol), 4 μM precorrin-6x (Thibaut et al., 1990) and partially purified dihydroprecorrin-6x methylase (0.5 U) (see preparation below). The reaction is then stopped by heating to 80° C. for 5 min and, after centrifugation at 5000×g for 5 min, the supernatant is injected onto a DEAE-Sephadex column (containing 200 μl of gel). The column is then washed extensively with the Tris-HCl buffer, and the compounds bound are eluted with 1 M HCl (4 ml). The radio activity in this eluent is counted by liquid scintillation counting. The unit of enzymatic activity is defined as the quantity of enzyme necessary for reducing 1 nmol of precorrin-6x per h under these conditions.
# When the purified enzyme (or an active fraction during purification, or even a crude enzyme extract) is incubated under the conditions of the assay of activity, but in the absence of SAM and of dihydroprecorrin-6x methylase, the product of the reaction can then be purified by HPLC in the system described for the purification of precorrin-6x (see Example 6.1.4.d). […]
# [2] = biological target: T4, cobalamin-5′-phosphate synthase (Sinorhizobium sp, UniProt P29936); assay: Specificity of cobalamin-5′-phosphate synthase; type: biochemical, Pseudomonas denitrificans; conditions: partially purified enzyme
# T4 construct: made in house; host or cells: Pseudomonas denitrificans SC510 Rif^r carrying plasmid pXL1490B (own cobV gene amplified)
# T4 sequence (P29936 whole entry): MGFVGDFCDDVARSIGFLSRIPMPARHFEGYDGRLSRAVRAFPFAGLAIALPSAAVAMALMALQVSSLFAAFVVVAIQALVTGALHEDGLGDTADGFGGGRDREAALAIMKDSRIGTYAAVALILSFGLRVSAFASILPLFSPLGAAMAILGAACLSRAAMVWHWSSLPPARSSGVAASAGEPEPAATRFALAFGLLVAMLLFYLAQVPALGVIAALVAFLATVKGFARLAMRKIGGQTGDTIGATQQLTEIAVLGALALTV
# Protocol: a) Assay of GDP-cobinamide: α-ribazole-5′-phosphate cobinamidephosphotransferase (or cobalamin-5′-phosphate synthase) activity. This example illustrates the assay of an activity directly linked to the pathway of biosynthesis of cobalamines. The enzyme in question is cobalamin-5′-phosphate synthase. The fractions containing the activity (approximately 5 to 10 units) are incubated in darkness at 30° C. in […] buffer pH 9.0 (500 μl) in the presence of 1 mM EDTA, 12.5 mM MgCl2, 50 μM α-ribazole 5′-phosphate and 20 μM GDP-cobinamide [in 5′-deoxy-5′-adenosyl (Ado) or coenzyme form]. After 15 min of incubation, 20 mM potassium cyanide (500 μl) is added and the solution is heated to 80° C. for 10 min. After centrifugation to remove the precipitated matter, the vitamin B12 5′-phosphate present in the supernatant is assayed as described in Example 9. One unit of cobalamin-5′-phosphate synthase is defined as the quantity of enzyme necessary for generating 1 nmol of cobalamine 5′-phosphate per h under the conditions described above.
# This experiment illustrates how a P. denitrificans enzymatic activity participating in the pathway of biosynthesis of cobalamines of P. denitrificans can be partially purified. Using the assay described above, the purification of cobalamin 5′-phosphate synthase is carried out. For this purpose, in a typical purification experiment, wet cells (10 g) of strain SC510 Rif^r, into which plasmid pXL1490B has been introduced as described previously, are used. Plasmid pXL1490B is described in FIG. 38: this plasmid corresponds to the 3.85-kb SstI-SstI-BamHI fragment cloned into PKT230. This plasmid carries the P. denitrificans cobU and cobV genes. […] The SC510 Rif^r pXL1490B cells are obtained by culture in PS4 medium supplemented with lividomycin, as described above. […]
# c) Specificity of cobalamin-5′-phosphate synthase. […] Intracellular α-ribazole 5′-phosphate and α-ribazole concentrations of 30 and 700 μM, respectively, were measured by HPLC during the production of cobalamins by SC510 Rif^r in PS4 medium under the culture conditions described in Example 6.1.5a).
# [3] = biological target: T2, Methanobacterium ivanovii SUMT; assay: Catalytic properties of purified M. ivanovii SUMT; type: biochemical
# Protocol: Methanobacterium ivanovii strain DSM2611 is cultured as described (Souillard et al., 1988). Wet cells (12 g) are obtained. The latter are resuspended in 0.1 M Tris-HCl buffer pH 7.6 (80 ml) containing 5 mM DTT and 1 mM EDTA, and sonicated for 1 h 30 min at 4° C. and then centrifuged for 1 h at 50,000 g. Free tetrapyrrole compounds are then cleared from the extract by passage through a small DEAE-Sephadex A25 column set up in the same buffer. The proteins precipitating at between 55 and 75% ammonium sulphate saturation are solubilised in a 0.1 M Tris-HCl pH 7.5, 0.5 mM DTT, 1.7 M ammonium sulphate buffer and injected onto a Phenyl-Superose HR 10/10 (Pharmacia France/SA) column eluted with a decreasing gradient (1.7 M to 0 M with respect to ammonium sulphate). The active fractions are passed through a Sephadex G-25 column equilibrated with 0.1 M Tris-HCl pH 7.5, 0.5 mM DTT, 25% glycerol buffer (buffer A), then injected onto a Mono Q HR 5/5 (Pharmacia France SA) column equilibrated with buffer A and eluted with a KCl gradient of 0 to 0.3 M; this step is repeated a second time under the same conditions. Gel permeation chromatography of the active fraction of the preceding step on Bio-Sil TSK-250 (BioRad France SA) enables a protein which is homogeneous in SDS-PAGE and in RP-HPLC (C-18 pBondapak) to be obtained. The different steps of purification, with their yield, as well as their purification factor, are described in the table below.
# As shown in this table, the total purification factor is more than 4,500. Some properties of the pure enzyme have been studied according to methods already described (Blanche et al., 1989). This enzyme does indeed have SUMT activity, i.e. it does indeed catalyse the SAM-dependant transfer of two methyl groups at C-2 and at C-7 of uro'gen III.
# The Vmax of M. ivanovii SUMT was determined. It is 1537 U/mg of proteins. This value is greater than that found for P. denitrificans SUMT, already determined under optimal conditions for the reaction (taking account of its inhibition by uro'gen III), 489 U/mg of proteins (Blanche et al., 1989).
molecule,measurement,setting,value
Cc1ccc2nc[nH]c2c1 [5-methylbenzimidazole],"reaction rate compared to the natural substrate (5,6-dimethylbenzimidazole)",[1],92%
c1ccc2[nH]cnc2c1 [Benzimidazole],"reaction rate compared to the natural substrate (5,6-dimethylbenzimidazole)",[1],157%
NC(=O)C1=CN([C@@H]2O[C@H](COP(=O)(O)OP(=O)(O)OC[C@H]3O[C@@H](n4cnc5c(N)ncnc54)[C@H](O)[C@@H]3O)[C@@H](O)[C@H]2O)C=CC1 [NADH],cofactor for reduction of precorrin-6x,precorrin-6x reductase,NADPH cannot be replaced by NADH
NC(=O)C1=CN([C@@H]2O[C@H](COP(=O)(O)OP(=O)(O)OC[C@H]3O[C@@H](n4cnc5c(N)ncnc54)[C@H](OP(=O)(O)O)[C@@H]3O)[C@@H](O)[C@H]2O)C=CC1 [NADPH],cofactor for reduction of precorrin-6x,precorrin-6x reductase,strictly NADPH-dependant
Cc1cc2ncn([C@H]3O[C@H](COP(=O)(O)O)[C@@H](O)[C@H]3O)c2cc1C [α-ribazole 5′-phosphate],Km,[2],~2.7 µM
Cc1cc2ncn([C@H]3O[C@H](CO)[C@@H](O)[C@H]3O)c2cc1C [α-ribazole],Km,[2],7.8 µM
GDP-cobinamide [(Ado)GDP-cobinamide],Km,[2],0.9 µM
B1,Vmax,[3],1537 U/mg of proteins
